Source: US9862707B2, “TrkA kinase inhibitors, compositions and methods thereof” (Merck Sharp & Dohme Corp., priority 2014, dated 2018)

Biological target: human TrkA receptor (Homo sapiens (Human), UniProt P04629)
Experiment: TrkA functional activity, DiscoverX PathHunter assay
Type: cell-based
Details: U2OS cells expressing human TrkA-PK, Shc1-EA and p75NTR; compound 1 h, then NGF at ~80% of maximal response for 3 h; luminescence

Sequence of human TrkA receptor (P04629 33-796): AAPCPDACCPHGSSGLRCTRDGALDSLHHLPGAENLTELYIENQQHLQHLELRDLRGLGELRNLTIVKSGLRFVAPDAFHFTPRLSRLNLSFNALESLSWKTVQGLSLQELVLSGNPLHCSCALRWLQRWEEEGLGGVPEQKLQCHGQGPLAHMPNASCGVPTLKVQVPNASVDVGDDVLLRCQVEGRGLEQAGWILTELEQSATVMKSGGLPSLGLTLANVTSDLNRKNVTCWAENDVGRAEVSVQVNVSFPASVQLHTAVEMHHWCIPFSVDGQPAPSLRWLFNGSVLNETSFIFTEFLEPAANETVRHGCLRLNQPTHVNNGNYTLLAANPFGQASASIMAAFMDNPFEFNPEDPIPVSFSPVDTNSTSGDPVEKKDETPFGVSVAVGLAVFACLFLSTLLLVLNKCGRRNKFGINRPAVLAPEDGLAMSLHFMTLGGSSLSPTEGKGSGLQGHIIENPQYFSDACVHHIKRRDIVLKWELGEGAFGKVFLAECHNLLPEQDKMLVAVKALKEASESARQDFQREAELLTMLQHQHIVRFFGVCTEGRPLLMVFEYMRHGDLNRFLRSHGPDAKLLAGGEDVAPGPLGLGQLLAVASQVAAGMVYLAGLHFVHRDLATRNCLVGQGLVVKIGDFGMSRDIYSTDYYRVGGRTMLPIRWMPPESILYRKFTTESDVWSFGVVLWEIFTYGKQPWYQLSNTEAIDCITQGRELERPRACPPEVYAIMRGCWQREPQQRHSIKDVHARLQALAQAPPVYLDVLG

Row | IC50 | SMILES
1 | 36 nM | NC(=O)c1cc2nn(-c3ccccc3)c(NC(=O)c3cc(-c4ncccn4)c(C(F)(F)F)cc3F)c2cn1 [Compound 76, 3-(2-Fluoro-5-(pyrimidin-2-yl)-4-(trifluoromethyl)benzamido)-2-phenyl-2H-pyrazolo[4,3-c]pyridine-6-carboxamide]
2 | 29 nM | Cn1ccc(-c2cc(C(=O)Nc3c4cc(C(F)(F)F)ccc4nn3-c3ccccc3)c(F)cc2C(F)(F)F)n1 [Compound 7, 2-fluoro-5-(1-methyl-1H-pyrazol-3-yl)-N-[2-phenyl-5-(trifluoromethyl)-2H-indazol-3-yl]-4-(trifluoromethyl)benzamide]
3 | 2.7 nM | Cn1ccc(-c2cc(C(=O)Nc3c4ccc([C@@H](N)C(F)(F)F)cc4nn3-c3ccccc3)ccc2C(F)(F)F)n1 [Compound 100]
4 | 0.66 nM | Cn1ccc(-c2cc(C(=O)Nc3c4ncccc4nn3-c3ccccc3)c(F)cc2C(F)(F)F)n1 [Compound 5, 2-fluoro-5-(1-methyl-1H-pyrazol-3-yl)-N-(2-phenyl-2H-pyrazolo[4,3-b]pyridin-3-yl)-4-(trifluoromethyl)benzamide]
5 | 744 nM | CC(=O)NCc1cccc(-n2nc3cccnc3c2NC(=O)c2cc(-c3ncccn3)c(C(F)(F)F)cc2F)c1 [Compound 9, N-(2-{3-[(acetylamino)methyl]phenyl}-2H-pyrazolo[4,3-b]pyridin-3-yl)-2-fluoro-5-pyrimidin-2-yl-4-(trifluoromethyl)benzamide]
6 | 2.8 nM | Cn1ccc(-c2cc(C(=O)Nc3c4ncc(C(N)=O)cc4nn3-c3ccccc3)ccc2C(F)(F)F)n1 [Compound 86, 3-({[3-(1-methyl-1H-pyrazol-3-yl)-4-(trifluoromethyl)phenyl]carbonyl}amino)-2-phenyl-2H-pyrazolo[4,3-b]pyridine-6-carboxamide]
7 | 2.9 nM | CC(O)c1ccc2c(NC(=O)c3cc(-c4ncccn4)c(C(F)(F)F)cc3F)n(-c3ccccc3)nc2c1 (single isomer, unassigned) [Compound 20, (R and S)-2-Fluoro-N-(6-(1-hydroxyethyl)-2-phenyl-2H-indazol-3-yl)-5-(pyrimidin-2-yl)-4-(trifluoromethyl)benzamide, isomers A and B]
8 | 1.2 nM | CC(O)c1cnc2c(NC(=O)c3cc(-c4cc[nH]n4)c(C(F)(F)F)cc3F)n(-c3ccccc3)nc2c1 (single isomer, unassigned) [Compound 22, 2-Fluoro-N-(6-(1-hydroxyethyl)-2-phenyl-2H-pyrazolo[4,3-b]pyridin-3-yl)-5-(1H-pyrazol-3-yl)-4-(trifluoromethyl)benzamide, isomers A and B]
9 | 29 nM | O=C(Nc1c2ncc(C(O)CO)cc2nn1-c1ccccc1)c1cc(-c2ncccn2)c(C(F)(F)F)cc1Cl (single isomer, unassigned; isomer b) [Compound 65, (R or S)-2-chloro-N-[6-(1,2-dihydroxyethyl)-2-phenyl-2H-pyrazolo[4,3-b]pyridin-3-yl]-5-pyrimidin-2-yl-4-(trifluoromethyl)benzamide, isomer B]
10 | 8.8 nM | Cn1ccc(-c2cc(C(=O)Nc3c4cc(C#N)ccc4nn3-c3ccccc3)ccc2C(F)(F)F)n1 [Compound 4, N-(5-cyano-2-phenyl-2H-indazol-3-yl)-3-(1-methyl-1H-pyrazol-3-yl)-4-(trifluoromethyl)benzamide]
11 | 4.4 nM | NC(=O)Cc1ccc2c(NC(=O)c3cc(-c4ncccn4)c(C(F)(F)F)cc3F)n(-c3ccccc3)nc2c1 [Compound 94, N-(6-(2-Amino-2-oxoethyl)-2-phenyl-2H-indazol-3-yl)-2-fluoro-5-(pyrimidin-2-yl)-4-(trifluoromethyl)benzamide]
12 | 3.6 nM | NC(=O)c1ccc2c(NC(=O)c3cc(-c4cc[nH]n4)c(C(F)(F)F)cc3F)n(-c3ccccc3)nc2c1 [Compound 78, 3-({[2-fluoro-5-(1H-pyrazol-3-yl)-4-(trifluoromethyl)phenyl]carbonyl}amino)-2-phenyl-2H-indazole-6-carboxamide]
13 | 12 nM | CC(C)(O)c1cnc2nn(-c3ccccc3)c(NC(=O)c3cc(-c4ncccn4)c(C(F)(F)F)cc3F)c2c1 [Compound 45, 2-fluoro-N-[5-(1-hydroxy-1-methylethyl)-2-phenyl-2H-pyrazolo[3,4-b]pyridin-3-yl]-5-pyrimidin-2-yl-4-(trifluoromethyl)benzamide]
14 | 20 nM | O=C(Nc1c2cc(CO)ncc2nn1-c1ccccc1)c1cc(-c2ncccn2)c(C(F)(F)F)cc1F [Compound 11, 2-Fluoro-N-(5-(hydroxymethyl)-2-phenyl-2H-pyrazolo[3,4-c]pyridin-3-yl)-5-(pyrimidin-2-yl)-4-(trifluoromethyl)benzamide]
15 | 3.9 nM | CC(C)(O)c1cnc2c(NC(=O)c3cc(-c4ncccn4)c(C(F)(F)F)cc3F)n(-c3ccccc3)nc2c1 [Compound 40, 2-Fluoro-N-(6-(2-hydroxypropan-2-yl)-2-phenyl-2H-pyrazolo[4,3-b]pyridin-3-yl)-5-(pyrimidin-2-yl)-4-(trifluoromethyl)benzamide]
16 | 0.57 nM | Cn1ccc(-c2cc(C(=O)Nc3c4ccc(C(N)=O)cc4nn3-c3ccccc3)c(F)cc2C(F)(F)F)n1 [Compound 74, 3-(2-Fluoro-5-(1-methyl-1H-pyrazol-3-yl)-4-(trifluoromethyl)benzamido)-2-phenyl-2H-indazole-6-carboxamide]
17 | 1.8 nM | Cn1ccc(-c2cc(C(=O)Nc3c4ccc(CN)cc4nn3-c3ccccc3)c(F)cc2C(F)(F)F)n1 [Compound 71, N-[6-(aminomethyl)-2-phenyl-2H-indazol-3-yl]-2-fluoro-5-(1-methyl-1H-pyrazol-3-yl)-4-(trifluoromethyl)benzamide]
18 | 14 nM | O=C(NCCO)c1ccc2c(NC(=O)c3cc(-c4ncccn4)c(C(F)(F)F)cc3Cl)n(-c3ccccc3)nc2c1 [Compound 90, 3-({[2-chloro-5-pyrimidin-2-yl-4-(trifluoromethyl)phenyl]carbonyl}amino)-N-(2-hydroxyethyl)-2-phenyl-2H-indazole-6-carboxamide]
19 | 0.88 nM | Cn1ccc(-c2cc(C(=O)Nc3c4nccc(CN5C(=O)CNC5=O)c4nn3-c3ccccc3)c(F)cc2C(F)(F)F)n1 [Compound 99, N-(7-((2,5-dioxoimidazolidin-1-yl)methyl)-2-phenyl-2H-pyrazolo[4,3-b]pyridin-3-yl)-2-fluoro-5-(1-methyl-1H-pyrazol-3-yl)-4-(trifluoromethyl)benzamide]
20 | 13 nM | NC(=O)c1cnc2c(NC(=O)c3ccc(C(F)(F)F)c(-c4ncccn4)c3)n(-c3ccccc3)nc2c1 [Compound 88, 2-phenyl-3-({[3-pyrimidin-2-yl-4-(trifluoromethyl)phenyl]carbonyl}amino)-2H-pyrazolo[4,3-b]pyridine-6-carboxamide]
21 | 11 nM | Cn1ccc(-c2cc(C(=O)Nc3c4cc(C(N)=O)ccc4nn3-c3ccccc3)ccc2C(F)(F)F)n1 [Compound 79, 3-({[3-(1-methyl-1H-pyrazol-3-yl)-4-(trifluoromethyl)phenyl]carbonyl}amino)-2-phenyl-2H-indazole-5-carboxamide]
